Results on 3 compounds are retold here after patent publication US8232448B2, “Transgenic mouse with a homozygous mutation in the CMAH gene” (The Regents of the University of California, priority 2005, dated 2012).

Experiment [1] relates to normal human skin fibroblasts. Kind of experiment: Neu5Gc/ManNGc feeding experiment, normal (WT) fibroblasts, DMB-HPLC. The following applies: for percent of Neu5Gc in membrane-bound glycoconjugates: normal wild-type (WT) fibroblasts, fed 3 mM for 3 days. Format: cell-based. As for the experimental part:
(§1) Neu5Gc and ManNGc Feeding Experiment—Neu5Ac, Neu5Gc or ManNGc were dried, dissolved in the appropriate media supplemented with heat-inactivated human serum, sterilized using a Spin-X® (Corning Inc., Corning, N.Y.) and then added to the cells. The pH of the media containing Sia was adjusted to neutrality using sterilized 1M NaOH before starting the feeding experiment. Cells were cultured in the presence of up to 3 mM free Sia or ManNGc for 1 or 3 days at 37° C. At the end of the feeding, cells were washed with cold PBS, harvested either by scraping or with 2 mM EDTA for fibroblasts, and washed again with cold PBS prior to fractionation.
Fractionation of the Labeled Cells—Washed cell pellets were sonicated into 500 μL of 20 mM sodium phosphate buffer or 20 mM Tris-HCl, pH 7.5, using 4×15 second pulses of a sonicator cell disrupter, model Some Dismembrator (Fisher Scientific, Hampton, N.J.) at a probe setting of 3. The sonicate was centrifuged at 75×g for 15 min., and the pellet Obtained consisted primarily of nuclei and unbroken cells. The pellet contained <5% of the incorporated sialic acid as determined using a radioactive tracer (data not shown.) The supernatant was therefore considered as the “total homogenate” fraction. A portion (20%) of the “total homogenate” fraction was taken for protein quantification and Sia analysis by DMB derivatization and HPLC analysis (as discussed below.) The remainder was centrifuged at 100,000×g for 1 h. The resulting pellet, called the “membrane” fraction, was then resuspended by sonication (15 sec.) in 200 μl of sodium acetate buffer, pH 5.5. The 100,000×g supernatant, called the “soluble” fraction was adjusted to 90% ethanol using absolute ice-cold ethanol, and placed overnight at −20° C. The flocculant precipitate, which represents the “soluble protein” fraction, was washed 3 times with 90%® ice-cold ethanol and then resuspended in 200 μl of water. The supernatant fluid representing the cytosolic low molecular weight (LMW) fraction was dried and brought up in 100 μL with water prior to Sia analysis. All the Sias in these fractions were released with mild acid hydrolysis if necessary and then analyzed by HPLC after DMB derivatization. Protein quantification was performed on the total homogenate, membrane and soluble protein fractions by using the BCA protein assay kit from Pierce (Rockford, Ill.) In some experiments, the resulting data obtained for the Sia bound to the membrane fraction and to the soluble proteins were pooled and presented here as a High Molecular Weight (HMW) fraction.
Sialic Acid Release, DMB Derivatization and HPLC Analysis—The bound Sias from the total homogenate, membrane and soluble protein fractions were released using 2M acetic acid hydrolysis, 3 h. at 80° C. The released Sias, or free Sias, contained in the soluble LMW fraction were passed through a Microcon® YM-10 filter (Millipore, Bedford, Mass.) prior to DMB derivatization, which was done according to Hara et al., 1989. DMB-Sia derivatives from the different fractions were then analyzed by HPLC using a C18 column (Microsorb MV-TM 100 A, Varian, Palo Alto, Calif.) Isocratic elution was achieved using 7% methanol, 8% acetonitrile in water during 50 min. at 0.9 ml/min flow. The eluant was monitored by fluorescence.
Quantification of Sias—For all HPLC chromatograms, the quantification of Sias was done by comparison with known quantities of DMB derivatized Neu5Gc and Neu5Ac used as standards and then reported in terms of pmoles of Sia. […]

Experiment [2] concerns Caco-2 cells. Kind of experiment: Competition of free Neu5Ac with free Neu5Gc for incorporation. Format: cell-based, human. To be noted: Caco-2, 3 mM Neu5Gc 3 days, in the presence of 15 mM Neu5Ac. As for the experimental part: Neu5Gc and ManNGc Feeding Experiment—Neu5Ac, Neu5Gc or ManNGc were dried, dissolved in the appropriate media supplemented with heat-inactivated human serum, sterilized using a Spin-X® (Corning Inc., Corning, N.Y.) and then added to the cells. The pH of the media containing Sia was adjusted to neutrality using sterilized 1M NaOH before starting the feeding experiment. […] At the end of the feeding, cells were washed with cold PBS, harvested either by scraping or with 2 mM EDTA for fibroblasts, and washed again with cold PBS prior to fractionation.
Fractionation of the Labeled Cells—Washed cell pellets were sonicated into 500 μL of 20 mM sodium phosphate buffer or 20 mM Tris-HCl, pH 7.5, using 4×15 second pulses of a sonicator cell disrupter, model Some Dismembrator (Fisher Scientific, Hampton, N.J.) at a probe setting of 3. […] The pellet contained <5% of the incorporated sialic acid as determined using a radioactive tracer (data not shown.) The supernatant was therefore considered as the “total homogenate” fraction. A portion (20%) of the “total homogenate” fraction was taken for protein quantification and Sia analysis by DMB derivatization and HPLC analysis (as discussed below.) The remainder was centrifuged at 100,000×g for 1 h. […] All the Sias in these fractions were released with mild acid hydrolysis if necessary and then analyzed by HPLC after DMB derivatization. […]

Experiment [3] has as its system human LB EBV-transformed lymphoblasts. Kind of experiment: Neu5Gc/Neu5Ac feeding experiment, human lymphoblasts. The format is cell-based. As to the method: Cell Culture—Caco-2 cells were propagated in alpha-MEM containing GLUTAMAX™ (Invitrogen, San Diego, Calif.) and a mixture of ribonucleosides and deoxyribonucleosides (Gibco/Invitrogen, San Diego, Calif.) supplemented with 20% FCS. All the fibroblast cell lines and CHO-K1 cells were cultured in the same media supplemented respectively with 15% non-heat inactivated FCS or 10% heat inactivated FCS. Chimpanzee Fred and human LB EBV-transformed lymphoblasts were cultured in RPMI-1640 (Gibco/Invitrogen, San Diego, Calif.) supplemented with 10% heat inactivated FCS or 15% human serum. All of the cultures were maintained at 37° C., 5% CO2 atmosphere. In order to deplete any remaining Neu5Gc from FCS, the cells were split and cultured prior to Neu5Gc feeding experiments for at least 4 days in alpha-MEM supplemented with an adequate percentage of heat-inactivated premium human serum instead of FCS. The cells were then maintained under the same conditions during the whole feeding experiment. The human serum was heat inactivated at 56° C. for 30 min. before use.
Neu5Gc and ManNGc Feeding Experiment—Neu5Ac, Neu5Gc or ManNGc were dried, dissolved in the appropriate media supplemented with heat-inactivated human serum, sterilized using a Spin-X® (Corning Inc., Corning, N.Y.) and then added to the cells. The pH of the media containing Sia was adjusted to neutrality using sterilized 1M NaOH before starting the feeding experiment. Cells were cultured in the presence of up to 3 mM free Sia or ManNGc for 1 or 3 days at 37° C. […]
Fractionation of the Labeled Cells—Washed cell pellets were sonicated into 500 μL of 20 mM sodium phosphate buffer or 20 mM Tris-HCl, pH 7.5, using 4×15 second pulses of a sonicator cell disrupter, model Some Dismembrator (Fisher Scientific, Hampton, N.J.) at a probe setting of 3. […] The pellet contained <5% of the incorporated sialic acid as determined using a radioactive tracer (data not shown.) The supernatant was therefore considered as the “total homogenate” fraction. A portion (20%) of the “total homogenate” fraction was taken for protein quantification and Sia analysis by DMB derivatization and HPLC analysis (as discussed below.) The remainder was centrifuged at 100,000×g for 1 h. […] All the Sias in these fractions were released with mild acid hydrolysis if necessary and then analyzed by HPLC after DMB derivatization. Protein quantification was performed on the total homogenate, membrane and soluble protein fractions by using the BCA protein assay kit from Pierce (Rockford, Ill.) In some experiments, the resulting data obtained for the Sia bound to the membrane fraction and to the soluble proteins were pooled and presented here as a High Molecular Weight (HMW) fraction. […]

Experiment [4] has as its system Human neuroblastoma cells. Kind of experiment: Neu5Gc feeding experiment, neuroblastoma cells. To be noted: fed 3 mM for 3 days. Format: cell-based. As to the method: as §1
Fractionation of the Labeled Cells—Washed cell pellets were sonicated into 500 μL of 20 mM sodium phosphate buffer or 20 mM Tris-HCl, pH 7.5, using 4×15 second pulses of a sonicator cell disrupter, model Some Dismembrator (Fisher Scientific, Hampton, N.J.) at a probe setting of 3. […] The pellet contained <5% of the incorporated sialic acid as determined using a radioactive tracer (data not shown.) The supernatant was therefore considered as the “total homogenate” fraction. A portion (20%) of the “total homogenate” fraction was taken for protein quantification and Sia analysis by DMB derivatization and HPLC analysis (as discussed below.) The remainder was centrifuged at 100,000×g for 1 h. […]

The subject of experiment [5] is Caco-2 cells. Kind of experiment: Neu5Gc feeding experiment, Neu5Gc in subcellular fractions by DMB-HPLC. Format: cell-based, human. The following applies: fed 3 mM for 3 days. As for the experimental part: as §1
Fractionation of the Labeled Cells—Washed cell pellets were sonicated into 500 μL of 20 mM sodium phosphate buffer or 20 mM Tris-HCl, pH 7.5, using 4×15 second pulses of a sonicator cell disrupter, model Some Dismembrator (Fisher Scientific, Hampton, N.J.) at a probe setting of 3. The sonicate was centrifuged at 75×g for 15 min., and the pellet Obtained consisted primarily of nuclei and unbroken cells. The pellet contained <5% of the incorporated sialic acid as determined using a radioactive tracer (data not shown.) The supernatant was therefore considered as the “total homogenate” fraction. A portion (20%) of the “total homogenate” fraction was taken for protein quantification and Sia analysis by DMB derivatization and HPLC analysis (as discussed below.) The remainder was centrifuged at 100,000×g for 1 h. The resulting pellet, called the “membrane” fraction, was then resuspended by sonication (15 sec.) in 200 μl of sodium acetate buffer, pH 5.5. […] All the Sias in these fractions were released with mild acid hydrolysis if necessary and then analyzed by HPLC after DMB derivatization. Protein quantification was performed on the total homogenate, membrane and soluble protein fractions by using the BCA protein assay kit from Pierce (Rockford, Ill.) In some experiments, the resulting data obtained for the Sia bound to the membrane fraction and to the soluble proteins were pooled and presented here as a High Molecular Weight (HMW) fraction. […]

In another experiment the test system is chimpanzee lymphoblasts. Kind of experiment: Neu5Gc/Neu5Ac feeding experiment, chimpanzee lymphoblasts. The format is cell-based. To be noted: chimpanzee lymphoblasts fed 3 mM for 3 days.
Setting [6] is: human normal fibroblasts after 3 mM Neu5Gc feeding, 3 days.
[7] abbreviates: human lymphoblasts fed 3 mM for 3 days.

For the compound `O=C(CO)N[C@@H]1C(O)O[C@H](CO)[C@@H](O)[C@@H]1O` (some centres unmarked) [ManNGc, N-glycolylmannosamine], the “percent of Neu5Gc in membrane-bound glycoconjugates” value in experiment [1] is on record as 19%.

Consider `CC(=O)N[C@H]1[C@H]([C@H](O)[C@H](O)CO)OC(O)(C(=O)O)C[C@@H]1O` (some centres unmarked) [Neu5Ac, N-acetylneuraminic acid], for which, in the experiment with Caco-2 cells [2], the “Neu5Gc (percent of total Sia) in the membrane-bound fraction” value is reported as “almost to zero”. In experiment [3] (human lymphoblasts fed 3 mM Neu5Ac for 3 days), the “Neu5Gc detected in the cells” value is on record as “almost no detectable Neu5Gc”.

As for `O=C(CO)N[C@H]1[C@H]([C@H](O)[C@H](O)CO)OC(O)(C(=O)O)C[C@@H]1O` (some centres unmarked) [Neu5Gc, N-glycolylneuraminic acid], in experiment [1] (setting [6]), the “Neu5Gc (percent of total Sia), HMW fraction” value worked out at 39%; the “Neu5Gc (percent of total Sia), TH fraction” value amounted to 28%; the “Neu5Gc (percent of total Sia), cytosolic LMW fraction” value worked out at 41%. In addition, the “percent of Neu5Gc in membrane-bound glycoconjugates” value in experiment [1] amounted to 37%. Besides, the Neu5Gc incorporation efficiency result in experiment [4] is recorded as “efficiency comparable to the Caco-2 cells”. Further, in experiment [3] (setting [7]), the “Neu5Gc (percent of total Sia), HMW fraction” value came to 51%; the “Neu5Gc (percent of total Sia), LMW cytosolic fraction” value is recorded as 80%; the “Neu5Gc (percent of total Sia), TH fraction” value was 67%. In the experiment on Caco-2 cells [5], the “Neu5Gc (percent of total Sia), cytosolic low molecular weight (LMW) fraction” value is listed as 70%; the “Neu5Gc (percent of total Sia), high molecular weight fraction (HMW)” value was 46%; the “Neu5Gc (percent of total Sia), total homogenate (TH)” value was found to be 58%. Also, the “Neu5Gc (percent of total Sia), TH fraction” value with chimpanzee lymphoblasts (non-fed baseline 57%) came out at 70%. Further, the “Neu5Gc (percent of total Sia), HMW fraction” value in the experiment with chimpanzee lymphoblasts (non-fed baseline 66%) came out at 72%. In the experiment with chimpanzee lymphoblasts (non-fed baseline 70%), the “Neu5Gc (percent of total Sia), LMW fraction” value is on record as 84%.
